Each structure is given as a SMILES string.

The test system of one assay is NCI-H1395. Description: relative viability (nuclei count vs DMSO), 5 days (fraction); higher = more cells survive. As to conditions: first compound 2.53 µM. The procedure, abridged:
(§1)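 Dosing by pin tool came one day after lung cancer cell lines were seeded in 1536-well plates, using either one drug or a fixed anchor-drug dose plus five library-drug doses (not always all listed) in √10 steps. After 5 days, nuclei were counted on 4× images. Relative viability is treated-well nuclei count divided by vehicle-well nuclei count, and values are medians of duplicate plates.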
For the compound `CCCCCCCCCCCC1=C(O)C(=O)C=C(O)C1=O` [Embelin] + Cc1cc(Nc2cc(N3CCN(C)CC3)nc(Sc3ccc(NC(=O)C4CC4)cc3)n2)n[nH]1 [Tozasertib] (partner 0.1 µM), the relative viability is 0.832.
The same measure, in the same setting: to `CCCCCCCCCCCC1=C(O)C(=O)C=C(O)C1=O` [Embelin] + CC(=O)Nc1cccc(-n2c(=O)n(C3CC3)c(=O)c3c(Nc4ccc(I)cc4F)n(C)c(=O)c(C)c32)c1 [Trametinib] (partner 0.02 µM) belongs 1.14; to `CCCCCCCCCCCC1=C(O)C(=O)C=C(O)C1=O` [Embelin] + Nc1ncn([C@H]2C[C@H](O)[C@@H](CO)O2)c(=O)n1 [Decitabine] (partner 2 µM), 0.699; to `CCCCCCCCCCCC1=C(O)C(=O)C=C(O)C1=O` [Embelin] + COc1cccc2cc(-c3nc([C@H]4CC[C@H](C(=O)O)CC4)n4ncnc(N)c34)[nH]c12 [OSI-027] (partner 0.5 µM), 0.615.
On the same count and under the same terms, with `CCCCCCCCCCCC1=C(O)C(=O)C=C(O)C1=O` [Embelin] + Nc1nc2[nH]cc(CCc3ccc(C(=O)N[C@@H](CCC(=O)O)C(=O)O)cc3)c2c(=O)[nH]1 [Pemetrexed] (partner 0.2 µM) the figure was 0.856.

The assay is the same for the next values; noted with them: first compound 8 µM.
As for `CCCCCCCCCCCC1=C(O)C(=O)C=C(O)C1=O` [Embelin] + Cc1cc(Nc2cc(N3CCN(C)CC3)nc(Sc3ccc(NC(=O)C4CC4)cc3)n2)n[nH]1 [Tozasertib] (partner 0.1 µM), the relative viability was 0.722.
Same read-out and setting: to `CCCCCCCCCCCC1=C(O)C(=O)C=C(O)C1=O` [Embelin] + CC(=O)Nc1cccc(-n2c(=O)n(C3CC3)c(=O)c3c(Nc4ccc(I)cc4F)n(C)c(=O)c(C)c32)c1 [Trametinib] (partner 0.02 µM) belongs 1.14.
Still for that read-out and setting: with `CCCCCCCCCCCC1=C(O)C(=O)C=C(O)C1=O` [Embelin] + Nc1ncn([C@H]2C[C@H](O)[C@@H](CO)O2)c(=O)n1 [Decitabine] (partner 2 µM) the figure was 0.698.
The same measure, in the same setting: to `CCCCCCCCCCCC1=C(O)C(=O)C=C(O)C1=O` [Embelin] + COc1cccc2cc(-c3nc([C@H]4CC[C@H](C(=O)O)CC4)n4ncnc(N)c34)[nH]c12 [OSI-027] (partner 0.5 µM) belongs 0.549; to `CCCCCCCCCCCC1=C(O)C(=O)C=C(O)C1=O` [Embelin] + Nc1nc2[nH]cc(CCc3ccc(C(=O)N[C@@H](CCC(=O)O)C(=O)O)cc3)c2c(=O)[nH]1 [Pemetrexed] (partner 0.2 µM), 0.585.

For the next assay, the system named is NCI-H650. Described as above. Conditions: first compound 0.08 µM. The procedure, abridged: as §1
Take `CCCCCCCCCCCC1=C(O)C(=O)C=C(O)C1=O` [Embelin] + Cc1cc(Nc2cc(N3CCN(C)CC3)nc(Sc3ccc(NC(=O)C4CC4)cc3)n2)n[nH]1 [Tozasertib] (partner 0.1 µM): the relative viability worked out at 0.823.
Same read-out and setting: to `CCCCCCCCCCCC1=C(O)C(=O)C=C(O)C1=O` [Embelin] + CC(=O)Nc1cccc(-n2c(=O)n(C3CC3)c(=O)c3c(Nc4ccc(I)cc4F)n(C)c(=O)c(C)c32)c1 [Trametinib] (partner 0.02 µM) belongs 0.977.
As to `CCCCCCCCCCCC1=C(O)C(=O)C=C(O)C1=O` [Embelin] + Nc1ncn([C@H]2C[C@H](O)[C@@H](CO)O2)c(=O)n1 [Decitabine] (partner 2 µM), the relative viability is 0.322.
Same read-out and setting: with `CCCCCCCCCCCC1=C(O)C(=O)C=C(O)C1=O` [Embelin] + COc1cccc2cc(-c3nc([C@H]4CC[C@H](C(=O)O)CC4)n4ncnc(N)c34)[nH]c12 [OSI-027] (partner 0.5 µM) the figure was 0.421; with `CCCCCCCCCCCC1=C(O)C(=O)C=C(O)C1=O` [Embelin] + Nc1nc2[nH]cc(CCc3ccc(C(=O)N[C@@H](CCC(=O)O)C(=O)O)cc3)c2c(=O)[nH]1 [Pemetrexed] (partner 0.2 µM), 0.968.

The assay is the same for the next values; noted with them: first compound 0.8 µM.
Take `CCCCCCCCCCCC1=C(O)C(=O)C=C(O)C1=O` [Embelin] + Cc1cc(Nc2cc(N3CCN(C)CC3)nc(Sc3ccc(NC(=O)C4CC4)cc3)n2)n[nH]1 [Tozasertib] (partner 0.1 µM): the relative viability was 1.04.
Still for that read-out and setting: with `CCCCCCCCCCCC1=C(O)C(=O)C=C(O)C1=O` [Embelin] + CC(=O)Nc1cccc(-n2c(=O)n(C3CC3)c(=O)c3c(Nc4ccc(I)cc4F)n(C)c(=O)c(C)c32)c1 [Trametinib] (partner 0.02 µM) the figure was 1.47.
The same measure, in the same setting: with `CCCCCCCCCCCC1=C(O)C(=O)C=C(O)C1=O` [Embelin] + Nc1ncn([C@H]2C[C@H](O)[C@@H](CO)O2)c(=O)n1 [Decitabine] (partner 2 µM) the figure was 0.371; with `CCCCCCCCCCCC1=C(O)C(=O)C=C(O)C1=O` [Embelin] + COc1cccc2cc(-c3nc([C@H]4CC[C@H](C(=O)O)CC4)n4ncnc(N)c34)[nH]c12 [OSI-027] (partner 0.5 µM), 0.623; with `CCCCCCCCCCCC1=C(O)C(=O)C=C(O)C1=O` [Embelin] + Nc1nc2[nH]cc(CCc3ccc(C(=O)N[C@@H](CCC(=O)O)C(=O)O)cc3)c2c(=O)[nH]1 [Pemetrexed] (partner 0.2 µM), 1.17.

The same assay, now with this note: first compound 2.53 µM.
`CCCCCCCCCCCC1=C(O)C(=O)C=C(O)C1=O` [Embelin] + Cc1cc(Nc2cc(N3CCN(C)CC3)nc(Sc3ccc(NC(=O)C4CC4)cc3)n2)n[nH]1 [Tozasertib] (partner 0.1 µM) had a relative viability of 0.869.
Same read-out and setting: with `CCCCCCCCCCCC1=C(O)C(=O)C=C(O)C1=O` [Embelin] + CC(=O)Nc1cccc(-n2c(=O)n(C3CC3)c(=O)c3c(Nc4ccc(I)cc4F)n(C)c(=O)c(C)c32)c1 [Trametinib] (partner 0.02 µM) the figure was 1.02.
The compound `CCCCCCCCCCCC1=C(O)C(=O)C=C(O)C1=O` [Embelin] + Nc1ncn([C@H]2C[C@H](O)[C@@H](CO)O2)c(=O)n1 [Decitabine] (partner 2 µM) showed a relative viability of 0.337.
On to `CCCCCCCCCCCC1=C(O)C(=O)C=C(O)C1=O` [Embelin] + COc1cccc2cc(-c3nc([C@H]4CC[C@H](C(=O)O)CC4)n4ncnc(N)c34)[nH]c12 [OSI-027] (partner 0.5 µM), for which the relative viability worked out at 0.388.
On the same count and under the same terms, with `CCCCCCCCCCCC1=C(O)C(=O)C=C(O)C1=O` [Embelin] + Nc1nc2[nH]cc(CCc3ccc(C(=O)N[C@@H](CCC(=O)O)C(=O)O)cc3)c2c(=O)[nH]1 [Pemetrexed] (partner 0.2 µM) the figure was 0.979.

The same assay, now with this note: first compound 8 µM.
Compound `CCCCCCCCCCCC1=C(O)C(=O)C=C(O)C1=O` [Embelin] + Cc1cc(Nc2cc(N3CCN(C)CC3)nc(Sc3ccc(NC(=O)C4CC4)cc3)n2)n[nH]1 [Tozasertib] (partner 0.1 µM) returned a relative viability of 0.724.
On the same count and under the same terms, to `CCCCCCCCCCCC1=C(O)C(=O)C=C(O)C1=O` [Embelin] + CC(=O)Nc1cccc(-n2c(=O)n(C3CC3)c(=O)c3c(Nc4ccc(I)cc4F)n(C)c(=O)c(C)c32)c1 [Trametinib] (partner 0.02 µM) belongs 0.987; to `CCCCCCCCCCCC1=C(O)C(=O)C=C(O)C1=O` [Embelin] + Nc1ncn([C@H]2C[C@H](O)[C@@H](CO)O2)c(=O)n1 [Decitabine] (partner 2 µM), 0.297.
